Experimental data as given in patent US20020091095A1, “Modulation of Fas and FasL expression” (priority 1999, published 2002).

Columns and labels:
[1] = test system: Fas; experiment: Fas expression at the cell surface by flow cytometry, Jurkat cells; type: cell-based; conditions: Jurkat human leukemia T cells, 100 μg/ml sequence, 48 h, treated vs control cells
Procedure: (§1) Cancer cells and PBMCs were seeded in 6 well flat-bottom microplates and were maintained at 37° C. in a 5% CO2 atmosphere. Unless stated otherwise, 2×10^5 cells/ml were incubated for 48 h with 0 μg/ml (control) or 100 μg/ml ([…]) (treated) of the sequences.
(§2) Fas and FasL expression were measured by flow cytometry using anti-Fas FITC-conjugated monoclonal antibodies and anti-FasL PE-conjugated monoclonal antibodies in a FACScalibur Flow Cytometer (Becton Dickinson, San Jose, Calif., USA) using the CELLQuest program (Becton Dickinson).
(§3) Results are expressed as percentage (%) increase in the expression of Fas and of FasL measured on treated cells compared to control cells.
(§4) Jurkat human leukemia T cells are an atypical multi-drug resistant human suspension tumor cell model.

[2] = test system: FasL; experiment: FasL expression at the cell surface by flow cytometry, Jurkat cells; type: cell-based; conditions: Jurkat human leukemia T cells, 100 μg/ml sequence, 48 h, treated vs control cells
Procedure: as §1, §2, §3, §4

[3] = test system: Fas; experiment: Fas expression at the cell surface by flow cytometry, PBMCs; type: cell-based, human; conditions: 100 μg/ml sequence, 48 h, treated vs control cells
Procedure: (§5) Peripheral blood mononuclear cells (hereinafter, “PBMCs”) were isolated from human blood by Ficoll-Hypaque (Amersham Pharmacia Biotech, Baie d'Urfée, Québec, Canada) density gradient centrifugation.
as §1, §2, §3

[4] = test system: FasL; experiment: FasL expression at the cell surface by flow cytometry, PBMCs; type: cell-based, human; conditions: 100 μg/ml sequence, 48 h, treated vs control cells
Procedure: as §5, §1, §2, §3

[5] = test system: Fas; experiment: Fas expression at the cell surface by flow cytometry, T-24 cells; type: cell-based, human; conditions: T-24 bladder cancer cells, 100 μg/ml sequence, 48 h, treated vs control cells
Procedure: as §1, §2, §3
(§6) T-24 bladder cancer cells are a p53 mutated human cell line T-24 cells (1.0×10^5 cells/ml) were incubated with the 6 base sequences shown in Table 4.

[6] = test system: FasL; experiment: FasL expression at the cell surface by flow cytometry, T-24 cells; type: cell-based, human; conditions: T-24 bladder cancer cells, 100 μg/ml sequence, 48 h, treated vs control cells
Procedure: as §1, §2, §3, §6

[7] = test system: Fas; experiment: Fas expression at the cell surface by flow cytometry, UMUC-3 cells; type: cell-based, human; conditions: UMUC-3 bladder cancer cells, 100 μg/ml sequence, 48 h, treated vs control cells
Procedure: as §1, §2, §3
(§7) UMUC-3 bladder cancer cells are a P-glycoprotein overexpressing human cell line.

[8] = test system: FasL; experiment: FasL expression at the cell surface by flow cytometry, UMUC-3 cells; type: cell-based, human; conditions: UMUC-3 bladder cancer cells, 100 μg/ml sequence, 48 h, treated vs control cells
Procedure: as §1, §2, §3, §7

[9] = test system: Fas; experiment: Fas expression at the cell surface by flow cytometry, OVCAR-3 cells; type: cell-based, human; conditions: OVCAR-3 ovarian cancer cells, 100 μg/ml sequence, 48 h, treated vs control cells
Procedure: as §1, §2, §3
(§8) OVCAR-3 ovarian cancer cells are a p53 mutated, p21/waf-1/Cip deleted, metastatic human solid tumor model.

[10] = test system: FasL; experiment: FasL expression at the cell surface by flow cytometry, OVCAR-3 cells; type: cell-based, human; conditions: OVCAR-3 ovarian cancer cells, 100 μg/ml sequence, 48 h, treated vs control cells
Procedure: as §1, §2, §3, §8

[11] = test system: Fas; experiment: Fas expression at the cell surface by flow cytometry, SK-OV-3 cells; type: cell-based, human; conditions: SK-OV-3 ovarian cancer cells, 100 μg/ml sequence, 48 h, treated vs control cells
Procedure: as §1, §2, §3
(§9) SK-OV-3 ovarian cancer cells are a p53 mutated, p21/waf-1/Cip deleted, p15^ink4B,p16^ink4 deleted metastatic human solid tumor model.

[12] = test system: FasL; experiment: FasL expression at the cell surface by flow cytometry, SK-OV-3 cells; type: cell-based, human; conditions: SK-OV-3 ovarian cancer cells, 100 μg/ml sequence, 48 h, treated vs control cells
Procedure: as §1, §2, §3, §9

[13] = test system: Fas; experiment: Fas expression at the cell surface by flow cytometry, LNCaP cells; type: cell-based, human; conditions: LNCaP prostate cancer cells, 100 μg/ml sequence, 48 h, treated vs control cells
Procedure: as §1, §2, §3
(§10) LNCaP prostate cancer cells are a TGF-beta 1 receptor negative, […], metastatic human solid tumor model.

[14] = test system: FasL; experiment: FasL expression at the cell surface by flow cytometry, LNCaP cells; type: cell-based, human; conditions: LNCaP prostate cancer cells, 100 μg/ml sequence, 48 h, treated vs control cells
Procedure: as §1, §2, §3, §10

[15] = test system: Fas; experiment: Fas expression at the cell surface by flow cytometry, MCF-7 cells; type: cell-based, human; conditions: MCF-7 breast cancer cells, 100 μg/ml sequence, 48 h, treated vs control cells
Procedure: as §1, §2, §3
(§11) MCF-7 human breast cancer cells are a caspase-3 negative, estrogen-dependent human solid tumor model.

[16] = test system: FasL; experiment: FasL expression at the cell surface by flow cytometry, MCF-7 cells; type: cell-based, human; conditions: MCF-7 breast cancer cells, 100 μg/ml sequence, 48 h, treated vs control cells
Procedure: as §1, §2, §3, §11

| Sequence | % INCREASE Fas [1] | % INCREASE FasL [2] | % INCREASE Fas [3] | % INCREASE FasL [4] | % INCREASE Fas [5] | % INCREASE FasL [6] | % INCREASE Fas [7] | % INCREASE FasL [8] | % INCREASE Fas [9] | % INCREASE FasL [10] | % INCREASE Fas [11] | % INCREASE FasL [12] | % INCREASE Fas [13] | % INCREASE FasL [14] | % INCREASE Fas [15] | % INCREASE FasL [16] |
| --- | --- | --- | --- | --- | --- | --- | --- | --- | --- | --- | --- | --- | --- | --- | --- | --- |
| TTGTTT [SEQ ID NO:6] | 126% | 140% | 338% | 441% | 116% | 152% | 57% | 132% | 65% | 98% | 41% | 24% | 40% | 73% | 143% | 159% |
| GGCCGG [SEQ ID NO:15] | 75% | 41% | 6% | −29% | 56% | 18% | 23% | 58% | 19% | −2% | 0% | −27% | 12% | −4% | 63% | 78% |
| TCGTTC [SEQ ID NO:12] | 121% | 75% | 597% | 847% | 105% | 74% | 47% | 112% | 126% | 224% | 9% | −3% | 111% | 171% | 56% | 98% |
| AAGTAA [SEQ ID NO:7] | −4% | −21% | 13% | −26% | 16% | −10% | 6% | −1% | 16% | −2% | −12% | −22% | 0% | −16% | 12% | 21% |
| TTTGTT [SEQ ID NO:3] | 258% | 497% | 1165% | 1528% | 279% | 549% | 108% | 231% | 193% | 341% | 108% | 103% | 199% | 344% | 361% | 528% |
| TGGTTG [SEQ ID NO:9] | 362% | 952% | 1043% | 1322% | 180% | 397% | 143% | 300% | 221% | 270% | 63% | 53% | 184% | 241% | 255% | 481% |
| ATGTAT [SEQ ID NO:10] | 246% | 393% | 377% | 457% | 90% | 150% | 42% | 95% | 93% | 114% | 34% | 33% | 44% | 68% | 129% | 214% |
